# Test results: ChEMBL document CHEMBL5120900, “Structure-Based Discovery of a Series of NSD2-PWWP1 Inhibitors” (J Med Chem, 2022)
# Activity calls are given as the source filed them. The calls are words filed in the database; no cut-off is given here.
# Legend:
# KMS-11 [1] = experiment: Induction of apoptosis in human KMS-11 cells assessed as necrotic cells at 10 uM measured after 72 hrs by Annexin V FITC/PI staining based flow cytometry analysis (reference value: 0.88%); format: functional
# [2] = target: T1, Histone-lysine N-methyltransferase NSD2 (Homo sapiens) (UniProt O96028); experiment: Inhibition of NSD2 in human RS4-11 cells assessed as decrease in TGFA gene expression at 10 uM incubated for 72 hrs by RT-PCR analysis; format: cell-based
# T1 sequence (whole entry): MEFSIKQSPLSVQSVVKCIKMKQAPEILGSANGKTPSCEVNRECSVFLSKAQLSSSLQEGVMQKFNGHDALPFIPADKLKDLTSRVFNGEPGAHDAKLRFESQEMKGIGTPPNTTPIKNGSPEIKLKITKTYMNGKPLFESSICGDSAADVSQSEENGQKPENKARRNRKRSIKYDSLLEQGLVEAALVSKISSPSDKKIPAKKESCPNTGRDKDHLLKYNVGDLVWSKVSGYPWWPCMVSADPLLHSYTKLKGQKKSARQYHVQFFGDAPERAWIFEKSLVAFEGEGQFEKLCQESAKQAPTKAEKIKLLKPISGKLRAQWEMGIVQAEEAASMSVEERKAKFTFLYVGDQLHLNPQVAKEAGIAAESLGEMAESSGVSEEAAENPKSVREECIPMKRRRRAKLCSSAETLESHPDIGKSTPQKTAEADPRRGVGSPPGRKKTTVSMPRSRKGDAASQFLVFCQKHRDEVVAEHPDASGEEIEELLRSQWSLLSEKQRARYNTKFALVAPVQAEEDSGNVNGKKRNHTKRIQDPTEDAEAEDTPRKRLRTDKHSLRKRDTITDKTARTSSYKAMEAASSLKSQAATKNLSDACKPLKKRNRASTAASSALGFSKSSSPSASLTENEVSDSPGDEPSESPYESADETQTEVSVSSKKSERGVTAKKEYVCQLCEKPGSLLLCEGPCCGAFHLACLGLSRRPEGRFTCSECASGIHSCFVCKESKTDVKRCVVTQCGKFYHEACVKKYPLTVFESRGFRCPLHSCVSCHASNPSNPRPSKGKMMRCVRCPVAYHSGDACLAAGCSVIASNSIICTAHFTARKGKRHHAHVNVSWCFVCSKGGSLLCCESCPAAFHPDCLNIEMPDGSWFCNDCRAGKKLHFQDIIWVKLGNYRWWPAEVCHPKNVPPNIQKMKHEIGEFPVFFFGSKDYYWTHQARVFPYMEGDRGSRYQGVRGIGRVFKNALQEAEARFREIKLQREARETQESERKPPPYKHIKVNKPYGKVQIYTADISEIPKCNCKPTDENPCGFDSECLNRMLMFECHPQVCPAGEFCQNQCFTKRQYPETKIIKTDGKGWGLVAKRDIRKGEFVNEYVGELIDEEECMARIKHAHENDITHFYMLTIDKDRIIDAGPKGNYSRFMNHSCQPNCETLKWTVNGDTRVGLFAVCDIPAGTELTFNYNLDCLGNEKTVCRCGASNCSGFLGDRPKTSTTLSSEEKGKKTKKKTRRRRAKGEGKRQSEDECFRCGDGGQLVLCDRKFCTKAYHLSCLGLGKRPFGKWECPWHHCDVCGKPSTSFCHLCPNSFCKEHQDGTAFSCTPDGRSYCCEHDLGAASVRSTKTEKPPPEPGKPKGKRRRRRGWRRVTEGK
# [3] = target: T1, Histone-lysine N-methyltransferase NSD2 (Homo sapiens); experiment: Inhibition of NSD2 in human RS4-11 cells assessed as decrease in NCAM1 gene expression at 10 uM incubated for 72 hrs by RT-PCR analysis; format: cell-based
# KMS-11 [4] = experiment: Antiproliferative activity against human KMS-11 cells assessed as inhibition of cell proliferation measured after 6 days by CCK8 assay; format: functional, cell-based; conditions: KMS-11, 144 h
# [5] = target: T1, Histone-lysine N-methyltransferase NSD2 (Homo sapiens); experiment: Inhibition of NSD2 in human KMS-11 cells assessed as decrease in TEMEL2 gene expression at 10 uM incubated for 72 hrs by RT-PCR analysis; format: cell-based
# RS4-11 = experiment: Antiproliferative activity against human RS4-11 cells assessed as inhibition of cell proliferation measured after 6 days by CCK8 assay; format: functional, cell-based; conditions: RS4-11, 144 h
# MV4-11 [6] = experiment: Induction of apoptosis in human MV4-11 cells assessed as late apoptotic cells at 10 uM measured after 72 hrs by Annexin V FITC/PI staining based flow cytometry analysis (reference value: 3.02%); format: functional
# [7] = target: T1, Histone-lysine N-methyltransferase NSD2 (Homo sapiens); experiment: Binding affinity to His6/Sumo-tagged NSD2 PWWP1 (unknown origin) (208 to 368 residues) expressed in Escherichia coli BL21 (DE3) assessed as increase in melting temperature by thermal shift assay; conditions: DDE = dose-dependent effect
# KMS-11 [8] = experiment: Induction of apoptosis in human KMS-11 cells assessed as viable cells at 10 uM measured after 72 hrs by Annexin V FITC/PI staining based flow cytometry analysis (reference value: 69.4%); format: functional; conditions: read-out: Activity
# KMS-11 [9] = experiment: Induction of apoptosis in human KMS-11 cells assessed as late apoptotic cells at 10 uM measured after 72 hrs by Annexin V FITC/PI staining based flow cytometry analysis (reference value: 13.3 %); format: functional
# MV4-11 [10] = experiment: Induction of apoptosis in human MV4-11 cells assessed as necrotic cells at 10 uM measured after 72 hrs by Annexin V FITC/PI staining based flow cytometry analysis (reference value: […]); format: functional
# [11] = target: T1, Histone-lysine N-methyltransferase NSD2 (Homo sapiens); experiment: Inhibition of NSD2 in human RS4-11 cells assessed as decrease in PAK1 gene expression at 10 uM incubated for 72 hrs by RT-PCR analysis; format: cell-based
# [12] = target: T1, Histone-lysine N-methyltransferase NSD2 (Homo sapiens); experiment: Inhibition of NSD2 in human KMS-11 cells assessed as decrease in NCAM1 gene expression at 10 uM incubated for 72 hrs by RT-PCR analysis; format: cell-based
# MV4-11 [13] = experiment: Induction of apoptosis in human MV4-11 cells assessed as necrotic cells at 5 uM measured after 72 hrs by Annexin V FITC/PI staining based flow cytometry analysis (reference value: […]); format: functional
# [14] = target: T1, Histone-lysine N-methyltransferase NSD2 (Homo sapiens); experiment: Inhibition of NSD2 in human KMS-11 cells assessed as decrease in RRAS2 gene expression at 10 uM incubated for 72 hrs by RT-PCR analysis; format: cell-based
# MV4-11 [15] = experiment: Induction of apoptosis in human MV4-11 cells assessed as late apoptotic cells at 5 uM measured after 72 hrs by Annexin V FITC/PI staining based flow cytometry analysis (reference value: 3.02%); format: functional
# [16] = target: T1, Histone-lysine N-methyltransferase NSD2 (Homo sapiens); experiment: Inhibition of NSD2 in human RS4-11 cells assessed as decrease in TEMEL2 gene expression at 10 uM incubated for 72 hrs by RT-PCR analysis; format: cell-based
# MV4-11 [17] = experiment: Induction of apoptosis in human MV4-11 cells assessed as early apoptotic cells at 5 uM measured after 72 hrs by Annexin V FITC/PI staining based flow cytometry analysis (reference value: 4.58 %); format: functional
# [18] = target: T1, Histone-lysine N-methyltransferase NSD2 (Homo sapiens); experiment: Inhibition of NSD2 in human KMS-11 cells assessed as decrease in PAK1 gene expression at 10 uM incubated for 72 hrs by RT-PCR analysis; format: cell-based
# KMS-11 [19] = experiment: Induction of apoptosis in human KMS-11 cells assessed as necrotic cells at 5 uM measured after 72 hrs by Annexin V FITC/PI staining based flow cytometry analysis (reference value: 0.88%); format: functional
smiles,measurement,setting,value
Cc1cc(CN2CCC(N)CC2)cc(C)c1-c1ncn(C)c1-c1ccc(C#N)c2ccccc12,Activity,KMS-11 [1],1.86%
same,inhibition,[2],Active
same,inhibition,[3],Active
same,IC50,KMS-11 [4],8.43 µM
same,inhibition,[5],Active
same,IC50,RS4-11,6.3 µM
same,Activity,MV4-11 [6],19.8%
same,Activity,[7],Dde
same,viability at 10 µM,KMS-11 [8],36.8%
same,Activity,KMS-11 [9],32.7%
same,Activity,MV4-11 [10],1.56%
same,inhibition,[11],Active
same,inhibition,[12],Active
same,Activity,MV4-11 [13],0.4%
same,inhibition,[14],Active
same,Activity,MV4-11 [15],2.37%
same,inhibition,[16],Active
same,Activity,MV4-11 [17],6.26%
same,inhibition,[18],Active
same,Activity,KMS-11 [19],0.69%
